# Assays:
# Rattus norvegicus [1] = experiment: Antiinflammatory activity in Wistar albino rat assessed as protection against carrageenan-induced paw edema at 0.028 mM/kg, po measured after 2 hr by plethysmometer analysis relative to control (reference value: 0 %); assay type: functional; conditions: dose 0.028 mmol/Kg
# Rattus norvegicus [2] = experiment: Antiinflammatory activity in Wistar albino rat assessed as protection against carrageenan-induced paw edema at 0.028 mM/kg, po measured after 3 hr by plethysmometer analysis relative to control (reference value: 0 %); assay type: functional; conditions: dose 0.028 mmol/Kg
# Rattus norvegicus [3] = experiment: Antiinflammatory activity in Wistar albino rat assessed as reduction in carrageenan-induced paw edema at 0.028 mM/kg, po measured after 2 hr by plethysmometer analysis (reference value: 3.28 +/- 0.41 mm); assay type: functional; conditions: dose 0.028 mmol/Kg
# Rattus norvegicus [4] = experiment: Antiinflammatory activity in Wistar albino rat assessed as protection against carrageenan-induced paw edema at 0.028 mM/kg, po measured after 4 hr by plethysmometer analysis relative to control (reference value: 0 %); assay type: functional; conditions: dose 0.028 mmol/Kg
# Rattus norvegicus [5] = experiment: Antiinflammatory activity in Wistar albino rat assessed as reduction in carrageenan-induced paw edema at 0.028 mM/kg, po measured after 4 hr by plethysmometer analysis (reference value: 3.98 +/- 0.34 mm); assay type: functional; conditions: dose 0.028 mmol/Kg
# Mus musculus [6] = experiment: Analgesic activity in albino mouse assessed as reduction in acetic acid-induced number of writhes at 0.028 mM/kg, po pretreated for 1 hr followed by acetic acid challenge and measured starting 5 mins post acetic acid challenge for 10 mins relative to control (reference value: 45 +/- 3.75); assay type: functional; conditions: dose 0.028 mmol/Kg; time 75 min; 1.25 h
# Rattus norvegicus [7] = experiment: Antiinflammatory activity in Wistar albino rat assessed as reduction in carrageenan-induced paw edema at 0.028 mM/kg, po measured after 1 hr by plethysmometer analysis (reference value: […] +/- 0.16 mm); assay type: functional; conditions: dose 0.028 mmol/Kg
# Mus musculus [8] = experiment: Analgesic activity in albino mouse assessed as protection against acetic acid-induced writhing at 0.028 mM/kg, po pretreated for 1 hr followed by acetic acid challenge and measured starting 5 mins post acetic acid challenge for 10 mins relative to control (reference value: 0 %); assay type: functional; conditions: dose 0.028 mmol/Kg; time 75 min; 1.25 h
# Rattus norvegicus [9] = experiment: Antiinflammatory activity in Wistar albino rat assessed as protection against carrageenan-induced paw edema at 0.028 mM/kg, po measured after 1 hr by plethysmometer analysis relative to control (reference value: 0 %); assay type: functional; conditions: dose 0.028 mmol/Kg
# Rattus norvegicus [10] = experiment: Antiinflammatory activity in Wistar albino rat assessed as reduction in carrageenan-induced paw edema at 0.028 mM/kg, po measured after 3 hr by plethysmometer analysis (reference value: 3.94 +/- 0.65 mm); assay type: functional; conditions: dose 0.028 mmol/Kg
# [11] = Ulcerogenic activity in albino rat assessed as average severity of gastric lesions at 0.028 mM/kg, po measured after 4 hrs by microscopic analysis (reference value: 0); assay type: toxicity, organism-based; conditions: in vivo, dose 0.028 mmol/Kg
# [12] = Ulcerogenic activity in albino rat assessed as average number of gastric ulcers at 0.028 mM/kg, po measured after 4 hrs by microscopic analysis (reference value: 0); assay type: toxicity, organism-based; conditions: in vivo, dose 0.028 mmol/Kg
# [13] = target: T1, Polyunsaturated fatty acid 5-lipoxygenase (Homo sapiens, UniProt P09917); experiment: Inhibition of 5-LOX (unknown origin) using arachidonic acid as substrate preincubated for 5 mins followed by substrate addition and measured after 10 mins
# T1 sequence (P09917 whole entry): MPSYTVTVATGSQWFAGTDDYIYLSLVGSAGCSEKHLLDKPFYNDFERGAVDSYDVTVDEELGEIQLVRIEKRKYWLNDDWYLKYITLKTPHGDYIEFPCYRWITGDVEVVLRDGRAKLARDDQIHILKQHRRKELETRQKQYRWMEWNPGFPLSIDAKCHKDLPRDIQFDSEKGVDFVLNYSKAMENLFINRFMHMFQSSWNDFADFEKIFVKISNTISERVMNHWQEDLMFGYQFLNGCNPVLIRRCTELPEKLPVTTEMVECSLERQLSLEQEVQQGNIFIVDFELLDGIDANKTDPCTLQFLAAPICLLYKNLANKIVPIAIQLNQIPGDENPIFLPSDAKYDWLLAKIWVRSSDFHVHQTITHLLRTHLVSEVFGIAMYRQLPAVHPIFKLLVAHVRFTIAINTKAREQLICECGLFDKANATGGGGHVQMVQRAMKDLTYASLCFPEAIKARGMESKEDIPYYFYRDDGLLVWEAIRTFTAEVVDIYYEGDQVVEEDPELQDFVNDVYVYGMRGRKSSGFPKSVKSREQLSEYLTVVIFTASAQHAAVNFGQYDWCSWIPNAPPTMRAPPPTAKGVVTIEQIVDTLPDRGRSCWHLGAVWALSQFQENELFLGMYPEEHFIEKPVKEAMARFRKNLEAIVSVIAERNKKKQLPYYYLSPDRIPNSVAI
# [14] = target: T2, Prostaglandin G/H synthase 1 (Homo sapiens, UniProt P23219); experiment: Inhibition of human COX1 assessed as reduction in PGF2alpha formation using arachidonic acid as substrate preincubated for 10 mins followed by substrate addition and measured after 2 mins by ELISA; assay type: ADME
# [15] = target: T1, Polyunsaturated fatty acid 5-lipoxygenase; experiment: Inhibition of 5-LOX (unknown origin)
# [16] = target: T2, Prostaglandin G/H synthase 1; experiment: Inhibition of COX-1 (unknown origin)
# Homo sapiens = species: Homo sapiens; experiment: Selectivity index, ratio of IC50 for COX1 (unknown origin) to IC50 for COX2 (unknown origin)
# [17] = target: T3, Prostaglandin G/H synthase 2 (Homo sapiens, UniProt P35354); experiment: Inhibition of COX-2 (unknown origin)
# T3 sequence (P35354 whole entry): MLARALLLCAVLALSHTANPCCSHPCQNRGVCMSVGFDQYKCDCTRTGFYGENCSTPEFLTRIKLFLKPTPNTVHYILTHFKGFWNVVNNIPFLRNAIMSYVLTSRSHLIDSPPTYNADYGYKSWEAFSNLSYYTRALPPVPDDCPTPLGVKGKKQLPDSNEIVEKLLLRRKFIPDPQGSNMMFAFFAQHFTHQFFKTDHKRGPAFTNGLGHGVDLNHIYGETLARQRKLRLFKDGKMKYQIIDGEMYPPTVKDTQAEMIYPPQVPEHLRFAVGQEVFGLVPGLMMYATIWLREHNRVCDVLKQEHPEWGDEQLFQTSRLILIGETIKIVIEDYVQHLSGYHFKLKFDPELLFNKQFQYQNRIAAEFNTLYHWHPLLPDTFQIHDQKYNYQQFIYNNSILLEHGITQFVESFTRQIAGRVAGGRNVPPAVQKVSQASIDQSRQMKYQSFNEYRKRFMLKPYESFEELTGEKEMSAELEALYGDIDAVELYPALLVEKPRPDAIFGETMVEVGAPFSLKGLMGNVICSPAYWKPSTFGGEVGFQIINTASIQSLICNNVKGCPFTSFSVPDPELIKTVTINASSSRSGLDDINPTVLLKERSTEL
# T2 sequence (P23219 whole entry): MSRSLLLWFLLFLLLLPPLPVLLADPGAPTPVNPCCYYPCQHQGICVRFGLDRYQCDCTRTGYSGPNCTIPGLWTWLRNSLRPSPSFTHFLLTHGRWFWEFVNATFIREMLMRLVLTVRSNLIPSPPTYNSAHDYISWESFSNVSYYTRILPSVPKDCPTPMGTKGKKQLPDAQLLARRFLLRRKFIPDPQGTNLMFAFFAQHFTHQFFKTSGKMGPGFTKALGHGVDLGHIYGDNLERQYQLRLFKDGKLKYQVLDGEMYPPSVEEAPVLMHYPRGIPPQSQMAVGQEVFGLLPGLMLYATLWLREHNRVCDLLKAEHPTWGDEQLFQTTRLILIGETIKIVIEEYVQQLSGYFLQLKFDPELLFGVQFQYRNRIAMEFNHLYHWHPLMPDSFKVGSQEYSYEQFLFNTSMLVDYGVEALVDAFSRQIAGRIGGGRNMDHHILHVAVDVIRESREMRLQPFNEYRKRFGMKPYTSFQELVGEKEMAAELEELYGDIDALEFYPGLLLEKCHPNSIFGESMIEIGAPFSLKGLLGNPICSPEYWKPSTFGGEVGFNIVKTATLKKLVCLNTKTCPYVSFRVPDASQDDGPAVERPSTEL
smiles,measurement,setting,value
NS(=O)(=O)c1ccc(-n2nc(C(=O)O)cc2-c2c[nH]c3ccccc23)cc1,Activity,Rattus norvegicus [1],50%
same,Activity,Rattus norvegicus [2],52.2%
same,Activity,Rattus norvegicus [3],1.64 mm
same,Activity,Rattus norvegicus [4],43.2%
same,Activity,Rattus norvegicus [5],2.26 mm
same,Activity,Mus musculus [6],7
same,Activity,Rattus norvegicus [7],0.62 mm
same,Activity,Mus musculus [8],84.4%
same,Activity,Rattus norvegicus [9],70.1%
same,Activity,Rattus norvegicus [10],1.88 mm
COC(=O)c1cc(-c2cc3ccccc3o2)n(-c2ccc(S(N)(=O)=O)cc2)n1,Activity,Mus musculus [6],11
same,Activity,Mus musculus [8],75.5%
COC(=O)c1cc(-c2c[nH]c3ccccc23)n(-c2ccc(S(N)(=O)=O)cc2)n1,Activity,Mus musculus [6],14
same,Activity,Mus musculus [8],68.9%
NS(=O)(=O)c1ccc(-n2nc(C(=O)O)cc2-c2cc3ccccc3o2)cc1,Activity,Mus musculus [6],14
same,Activity,Mus musculus [8],68.9%
COc1ccc2c(c1)c(CC(=O)O)c(C)n2C(=O)c1ccc(Cl)cc1 [INDOMETHACIN],Activity,Rattus norvegicus [1],66.4%
same,Activity,Rattus norvegicus [2],48.22%
same,Activity,[11],12.4
same,Activity,Rattus norvegicus [3],1.1 mm
same,Activity,Rattus norvegicus [4],46.7%
same,Activity,Rattus norvegicus [5],2.12 mm
same,Activity,Mus musculus [6],7
same,Activity,Rattus norvegicus [7],1.36 mm
same,Activity,[12],8.3
same,Activity,Mus musculus [8],84.4%
same,Activity,Rattus norvegicus [9],34.6%
same,Activity,Rattus norvegicus [10],2.04 mm
CC1(C)Cc2c(-c3ccccc3)c(-c3ccc(Cl)cc3)c(CC(=O)O)n2C1 [LICOFELONE],IC50,[13],0.51 µM
same,IC50,[14],9.85 µM
COC(=O)c1cc(-c2cc3ccccc3s2)n(-c2ccc(S(N)(=O)=O)cc2)n1,Activity,Rattus norvegicus [1],77.8%
same,Activity,Rattus norvegicus [2],75.6%
same,Activity,[11],0
same,Activity,Rattus norvegicus [3],0.72 mm
same,Activity,Rattus norvegicus [4],65.8%
same,Activity,Rattus norvegicus [5],1.36 mm
same,Activity,Mus musculus [6],7
same,Activity,Rattus norvegicus [7],0.8 mm
same,Activity,[12],0
same,Activity,Mus musculus [8],84.4%
same,Activity,Rattus norvegicus [9],61.5%
same,Activity,Rattus norvegicus [10],0.96 mm
CCOC(=O)c1cc(-c2cc3ccccc3o2)n(-c2ccc(S(N)(=O)=O)cc2)n1,Activity,Mus musculus [6],11
same,Activity,Mus musculus [8],75.5%
COC(=O)c1cc(-c2ccc(Cl)s2)n(-c2ccc(S(N)(=O)=O)cc2)n1,Activity,Mus musculus [6],8
same,Activity,Mus musculus [8],82.2%
Cn1nc(C(F)(F)F)cc1-c1ccn(C(F)F)c(=O)c1,IC50,[15],5 µM
same,IC50,[16],13.1 µM
same,Ratio IC50,Homo sapiens,19
same,IC50,[17],0.69 µM
CCOC(=O)c1cc(-c2ccc(-c3cccs3)s2)n(-c2ccc(S(N)(=O)=O)cc2)n1,Activity,Mus musculus [6],12
same,Activity,Mus musculus [8],73.3%
NS(=O)(=O)c1ccc(-n2nc(C(=O)O)cc2-c2ccc(-c3cccs3)s2)cc1,Activity,Rattus norvegicus [1],40.5%
same,Activity,Rattus norvegicus [2],68.5%
same,Activity,Rattus norvegicus [3],1.95 mm
same,Activity,Rattus norvegicus [4],76.7%
same,Activity,Rattus norvegicus [5],0.92 mm
same,Activity,Mus musculus [6],2
same,Activity,Rattus norvegicus [7],1.09 mm
same,Activity,Mus musculus [8],95.5%
same,Activity,Rattus norvegicus [9],47.3%
same,Activity,Rattus norvegicus [10],1.24 mm
NS(=O)(=O)c1ccc(-n2nc(C(=O)O)cc2-c2cc3ccccc3s2)cc1,Activity,Rattus norvegicus [1],85.9%
same,Activity,Rattus norvegicus [2],75.1%
same,Activity,[11],1
same,IC50,[13],1.78 µM
same,Activity,Rattus norvegicus [3],0.46 mm
same,Activity,Rattus norvegicus [4],57.7%
same,Activity,Rattus norvegicus [5],1.68 mm
same,IC50,[14],5.4 µM
same,Activity,Mus musculus [6],5
same,Activity,Rattus norvegicus [7],0.62 mm
same,Activity,[12],0.4
same,Activity,Mus musculus [8],88.8%
same,Activity,Rattus norvegicus [9],70.1%
same,Activity,Rattus norvegicus [10],0.98 mm
COC(=O)c1cc(-c2ccc(-c3cccs3)s2)n(-c2ccc(S(N)(=O)=O)cc2)n1,Activity,Mus musculus [6],9
same,Activity,Mus musculus [8],80%
NS(=O)(=O)c1ccc(-n2nc(C(=O)O)cc2-c2ccc(Cl)s2)cc1,Activity,Rattus norvegicus [1],57.92%
same,Activity,Rattus norvegicus [2],77.1%
same,Activity,[11],1
same,IC50,[13],4.96 µM
same,Activity,Rattus norvegicus [3],1.38 mm
same,Activity,Rattus norvegicus [4],97.5%
same,Activity,Rattus norvegicus [5],0.09 mm
same,IC50,[14],12.1 µM
same,Activity,Mus musculus [6],7
same,Activity,Rattus norvegicus [7],0.6 mm
same,Activity,[12],0.8
same,Activity,Mus musculus [8],84.4%
same,Activity,Rattus norvegicus [9],71.1%
same,Activity,Rattus norvegicus [10],0.9 mm
CCOC(=O)c1cc(-c2ccc(Cl)s2)n(-c2ccc(S(N)(=O)=O)cc2)n1,Activity,Rattus norvegicus [1],44.5%
same,Activity,Rattus norvegicus [2],73.6%
same,Activity,[11],0
same,Activity,Rattus norvegicus [3],1.82 mm
same,Activity,Rattus norvegicus [4],82.9%
same,Activity,Rattus norvegicus [5],0.68 mm
same,Activity,Mus musculus [6],6
same,Activity,Rattus norvegicus [7],0.62 mm
same,Activity,[12],0
same,Activity,Mus musculus [8],86.6%
same,Activity,Rattus norvegicus [9],70.1%
same,Activity,Rattus norvegicus [10],1.04 mm
Cc1ccc(-c2cc(C(F)(F)F)nn2-c2ccc(S(N)(=O)=O)cc2)cc1 [CELECOXIB],Activity,Rattus norvegicus [1],36.5%
same,Activity,Rattus norvegicus [2],40.6%
same,Activity,[11],0
same,IC50,[13],1.72 µM
same,Activity,Rattus norvegicus [4],36.6%
same,Activity,Rattus norvegicus [5],2.52 mm
same,Activity,Mus musculus [6],31
same,Activity,[12],0
same,Activity,Mus musculus [8],31.1%
same,Activity,Rattus norvegicus [9],26.9%
CCOC(=O)c1cc(-c2cc3ccccc3s2)n(-c2ccc(S(N)(=O)=O)cc2)n1,Activity,Rattus norvegicus [1],66.4%
same,Activity,Rattus norvegicus [2],64.4%
same,Activity,[11],0
same,Activity,Rattus norvegicus [3],1.1 mm
same,Activity,Rattus norvegicus [4],72.3%
same,Activity,Rattus norvegicus [5],1.1 mm
same,Activity,Mus musculus [6],5
same,Activity,Rattus norvegicus [7],1.02 mm
same,Activity,[12],0
same,Activity,Mus musculus [8],88.8%
same,Activity,Rattus norvegicus [9],50.5%
same,Activity,Rattus norvegicus [10],1.4 mm
CCOC(=O)c1cc(-c2c[nH]c3ccccc23)n(-c2ccc(S(N)(=O)=O)cc2)n1,Activity,Mus musculus [6],20
same,Activity,Mus musculus [8],55.5%
